Calls of active or inactive are those of the source. No cut-off for these calls is given here.
Legend:
[1] = molecular target: Voltage-gated inwardly rectifying potassium channel KCNH2 (Homo sapiens, UniProt Q12809)
Description: Displacement of [3H]-dofetilide from human ERG expressed in HEK293 cells

[2] = tested on: Human immunodeficiency virus 1; assay: Antiviral activity against maraviroc-resistant HIV1 isolate CC185 at 10 times IC90 concentration; type: functional, organism-based
[3] = Intrinsic clearance in human liver microsomes assessed per mg of protein; type: ADME, Microsome
[4] = Octanol-buffer partition coefficient, log D of the compound
[5] = Apparent permeability from basolateral to apical side of human Caco2 cells; details: Caco-2
[6] = tested on: Human immunodeficiency virus 1; assay: Antiviral activity against maraviroc-resistant HIV1 isolate CC185 at IC90 concentration; type: functional, organism-based
[7] = tested on: Human immunodeficiency virus 1; assay: Antiviral activity against maraviroc-resistant HIV1 isolate CC185 at 100 times IC90 concentration; type: functional, organism-based
[8] = Apparent permeability from apical to basolateral side of human Caco2 cells; details: Caco-2
hERG (KCNH2) = hERG (KCNH2) (Homo sapiens, UniProt Q12809); assay: in vitro; details: HEK293 cells that express human ERG, probe [3H]-dofetilide
Description: Displacement of [3H]-dofetilide from human ERG expressed in HEK293 cells at 300 nM

[9] = Half life in rat at 1 mg/kg, iv and 2 mg/kg, po; type: ADME, organism-based; details: in vivo
[10] = Intrinsic clearance in rat liver microsomes assessed per mg of protein; type: ADME, Microsome
Rattus norvegicus = assay: Unbound clearance in rat at 1 mg/kg, iv and 2 mg/kg, po; type: ADME, organism-based; details: in vivo
[11] = Oral bioavailability in rat at 2 mg/kg; type: ADME, organism-based; details: in vivo
[12] = Oral bioavailability in dog at 0.5 mg/kg; type: ADME, organism-based, Canis lupus familiaris; details: in vivo
[13] = Clearance in dog at 0.5 mg/kg, iv and 0.5 mg/kg, po; type: ADME, organism-based, Canis lupus familiaris; details: in vivo
[14] = Clearance in rat at 1 mg/kg, iv and 2 mg/kg, po; type: ADME, organism-based; details: in vivo
[15] = Intrinsic clearance in dog liver microsomes assessed per mg of protein; type: ADME, Canis lupus familiaris, Microsome
[16] = Half life in dog at 0.5 mg/kg, iv and 0.5 mg/kg, po; type: ADME, organism-based, Canis lupus familiaris; details: in vivo
Canis familiaris = assay: Unbound clearance in dog at 0.5 mg/kg, iv and 0.5 mg/kg, po; type: ADME, organism-based, Canis lupus familiaris; details: in vivo
[17] = Plasma protein binding in dog at 0.5 mg/kg, iv and 0.5 mg/kg, po; type: ADME, organism-based, Canis lupus familiaris; details: read-out: PPB (converted)
[18] = tested on: Human immunodeficiency virus; assay: Antiviral activity against HIV Ba-L infected in PBMC; type: functional; details: Human immunodeficiency virus 1, Ba-L
[19] = Plasma protein binding in rat at 1 mg/kg, iv and 2 mg/kg, po; type: ADME, organism-based; details: read-out: PPB (converted)
[20] = Tmax in dog at 0.5 mg/kg, po; type: ADME, organism-based, Canis lupus familiaris; set-up: dose 0.5 mg/kg, route oral; details: in vivo
[21] = Volume of distribution in dog at 0.5 mg/kg, iv and 0.5 mg/kg, po; type: ADME, organism-based, Canis lupus familiaris; details: in vivo

Chain of Voltage-gated inwardly rectifying potassium channel KCNH2 (Q12809 whole entry): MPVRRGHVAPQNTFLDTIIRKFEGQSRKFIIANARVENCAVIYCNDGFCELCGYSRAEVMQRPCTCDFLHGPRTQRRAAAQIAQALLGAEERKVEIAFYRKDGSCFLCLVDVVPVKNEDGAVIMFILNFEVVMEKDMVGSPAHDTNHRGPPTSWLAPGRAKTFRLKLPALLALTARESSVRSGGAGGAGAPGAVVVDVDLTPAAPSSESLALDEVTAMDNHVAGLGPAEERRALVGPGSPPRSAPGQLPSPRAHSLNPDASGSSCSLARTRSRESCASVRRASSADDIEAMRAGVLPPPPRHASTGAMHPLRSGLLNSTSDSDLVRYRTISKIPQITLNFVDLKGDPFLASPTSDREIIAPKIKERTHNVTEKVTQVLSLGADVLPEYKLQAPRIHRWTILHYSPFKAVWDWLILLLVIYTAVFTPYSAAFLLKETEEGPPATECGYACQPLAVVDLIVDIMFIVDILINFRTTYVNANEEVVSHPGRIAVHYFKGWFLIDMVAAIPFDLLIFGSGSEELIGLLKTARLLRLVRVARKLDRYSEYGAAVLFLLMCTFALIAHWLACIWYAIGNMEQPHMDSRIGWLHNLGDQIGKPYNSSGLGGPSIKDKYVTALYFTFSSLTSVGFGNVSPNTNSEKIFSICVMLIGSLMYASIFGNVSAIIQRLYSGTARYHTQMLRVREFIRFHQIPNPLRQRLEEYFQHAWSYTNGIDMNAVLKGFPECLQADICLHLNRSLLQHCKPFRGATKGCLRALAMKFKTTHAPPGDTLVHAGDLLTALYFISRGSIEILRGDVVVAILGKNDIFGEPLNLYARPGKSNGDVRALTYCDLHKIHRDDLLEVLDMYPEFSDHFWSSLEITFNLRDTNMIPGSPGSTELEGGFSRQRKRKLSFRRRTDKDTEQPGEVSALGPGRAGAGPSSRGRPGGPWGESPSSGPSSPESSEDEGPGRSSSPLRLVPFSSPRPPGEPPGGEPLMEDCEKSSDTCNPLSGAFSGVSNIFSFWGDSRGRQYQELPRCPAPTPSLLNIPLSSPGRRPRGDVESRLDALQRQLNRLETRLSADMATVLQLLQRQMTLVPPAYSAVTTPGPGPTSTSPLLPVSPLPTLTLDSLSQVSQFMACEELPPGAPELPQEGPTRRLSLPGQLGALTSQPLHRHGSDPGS
Chain of hERG (KCNH2) (Q12809 whole entry): as above

Row | SMILES | microsomal CLint [3] [µL/min/mg] | logD [4] | Papp B→A [5] [×10⁻⁶ cm/s] | Papp A→B [8] [×10⁻⁶ cm/s] | inhibition at 0.3 µM (hERG (KCNH2)) [%] | also measured
1 | CCC(=O)N1CCc2c(nc(C)n2[C@H]2C[C@H]3CC[C@@H](C2)N3CC[C@H](NC(C)=O)c2cccc(F)c2)C1 | 11 | 1.7 | 13 | 2 | – | IC50 [1]: 5000 nM; Activity [2]: Active; Activity [6]: Active; Activity [7]: Active
2 | Cc1nc2ccccc2n1[C@H]1C[C@H]2CC[C@@H](C1)N2CC[C@H](NC(=O)C1CCOCC1)c1ccccc1 | – | – | – | – | – | Activity [2]: Active; Activity [6]: Active; Activity [7]: Active
3 | COC[C@@H](c1ccc(C(F)(F)F)cc1)N1CCN(C2(C)CCN(C(=O)c3c(C)ncnc3C)CC2)C[C@@H]1C | – | – | – | – | – | Activity [2]: Active; Activity [6]: Active; Activity [7]: Active
4 | CC(=O)N[C@@H](CCN1[C@@H]2CC[C@H]1C[C@@H](n1c(C)nc3c1CCN(c1cnccn1)C3)C2)c1cccc(F)c1 | 183 | 3 | – | – | – | IC50 [1]: 1000 nM
5 | CCCC(=O)N1CCc2c(nc(C)n2[C@H]2C[C@H]3CC[C@@H](C2)N3CC[C@H](NC(C)=O)c2cccc(F)c2)C1 | 25 | 2.2 | 26 | 1 | – | –
6 | Cc1nnc(C2CC2)n1[C@H]1C[C@H]2CC[C@@H](C1)N2CC[C@H](NC(=O)C1CCC(F)(F)CC1)c1ccccc1 | – | – | – | – | – | Activity [2]: inactive; Activity [6]: inactive; Activity [7]: inactive
7 | CC(=O)N[C@@H](CCN1[C@@H]2CC[C@H]1C[C@@H](n1c(C)nc3c1CCN(c1ccncn1)C3)C2)c1cccc(F)c1 | 35 | 2.6 | 15 | 4 | – | IC50 [1]: 10 nM
8 | COC(=O)N[C@@H](CCN1[C@@H]2CC[C@H]1C[C@@H](n1c(C)nc3c1CN(C(=O)OC)CC3)C2)c1cccc(F)c1 | 92 | 2.6 | 17 | 17 | 69 | –
9 | CC(=O)N[C@@H](CCN1[C@@H]2CC[C@H]1C[C@@H](n1c(C)nc3c1CCN(C(=O)C(C)C)C3)C2)c1cccc(F)c1 [PF-232798] | 13 | 2 | 8 | 2 | – | IC50 [1]: 12000 nM; Activity [2]: Active; half-life [9]: 84 min; microsomal CLint [10]: < 6 µL/min/mg; CL (Rattus norvegicus): 526 mL/min/kg; bioavailability [11]: < 5%; bioavailability [12]: 31%; clearance [13]: 36 mL/min/kg; clearance [14]: 201 mL/min/kg; microsomal CLint [15]: < 9 µL/min/mg; half-life [16]: 204 min; Activity [6]: Active; CL (Canis familiaris): 63 mL/min/kg; fraction unbound [17]: 0.53; IC90 [18]: 2 nM; Activity [7]: Active; fraction unbound [19]: 0.38; Tmax [20]: 1 h; Vd [21]: 10.5 L/kg
10 | COC(=O)N1CCc2nc(C)n([C@H]3C[C@H]4CC[C@@H](C3)N4CC[C@H](NC(C)=O)c3ccccc3)c2C1 | 18 | 1.5 | 16 | 3 | 20 | –
11 | CC(=O)N1CC(C(=O)N[C@@H](CCN2[C@@H]3CC[C@H]2C[C@@H](n2c(C)nc4ccccc42)C3)c2ccccc2)C1 | – | – | – | – | – | Activity [2]: Active; Activity [6]: Active; Activity [7]: Active
12 | CC(=O)N[C@@H](CCN1[C@@H]2CC[C@H]1C[C@@H](n1c(C)nc3c1CN(C(C)=O)CC3)C2)c1ccccc1 | < 7 | 0.6 | 5 | < 1 | 0 | –
13 | CC(=O)N[C@@H](CCN1[C@@H]2CC[C@H]1C[C@@H](n1c(C)nc3c1CN(C(=O)C(C)C)CC3)C2)c1ccccc1 | 42 | 1.6 | 20 | < 1 | 0 | –
14 | CC(=O)N[C@@H](CCN1[C@@H]2CC[C@H]1C[C@@H](n1c(C)nc3c1CN(S(C)(=O)=O)CC3)C2)c1ccccc1 | 24 | 0.9 | – | – | 10 | –
15 | COC(=O)N[C@@H](CCN1[C@@H]2CC[C@H]1C[C@@H](n1c(C)nc3c1CN(C(C)=O)CC3)C2)c1cccc(F)c1 | 24 | 1.7 | 23 | 6 | 28 | –
16 | Cc1nnc(C(C)C)n1[C@H]1C[C@H]2CC[C@@H](C1)N2CC[C@H](NC(=O)C1CCC(F)(F)CC1)c1cccc(F)c1 | – | – | – | – | – | Activity [2]: inactive; Activity [6]: inactive; Activity [7]: inactive
17 | CC(=O)N[C@@H](CCN1[C@@H]2CC[C@H]1C[C@@H](n1c(C)nc3c1CCN(C(C)=O)C3)C2)c1cccc(F)c1 | < 8 | 1.4 | 6 | < 1 | – | –
18 | CC(=O)N[C@@H](CCN1[C@@H]2CC[C@H]1C[C@@H](n1c(C)nc3c1CN(C)CC3)C2)c1ccccc1 | < 7 | 0.4 | 9 | < 1 | 0 | –
19 | CCCCN1C(=O)[C@@H]([C@H](O)C2CCCCC2)NC(=O)C12CCN(Cc1ccc(Oc3ccc(C(=O)O)cc3)cc1)CC2 | – | – | – | – | – | Activity [2]: Active; Activity [6]: Active; Activity [7]: Active
20 | Cc1nnc(C(C)C)n1[C@H]1C[C@H]2CC[C@@H](C1)N2CC[C@H](NC(=O)C1CCC(F)(F)CC1)c1ccccc1 [MARAVIROC] | – | – | – | – | – | IC90 [18]: 3.2 nM
21 | CC(=O)N[C@@H](CCN1[C@@H]2CC[C@H]1C[C@@H](n1c(C)nc3c1CN(C(=O)OC(C)C)CC3)C2)c1ccccc1 | 44 | 2.7 | 28 | 5 | 75 | –
22 | CC(=O)N[C@@H](CCN1[C@@H]2CC[C@H]1C[C@@H](n1c(C)nc3c1CCN(C(=O)C(C)(C)C)C3)C2)c1cccc(F)c1 | 35 | 2.8 | 24 | 1 | – | –
23 | CC(=O)N[C@@H](CCN1[C@@H]2CC[C@H]1C[C@@H](n1c(C)nc3c1CN(C(C)C)CC3)C2)c1ccccc1 | 46 | 0.8 | – | – | – | –
24 | CC(=O)N[C@@H](CCN1[C@@H]2CC[C@H]1C[C@@H](n1c(C)nc3ccccc31)C2)c1ccccc1 | – | – | 35 | 13 | – | IC50 [1]: 1500 nM
25 | Cc1nc(C(C)C)n([C@H]2C[C@H]3CC[C@@H](C2)N3CC[C@H](NC(=O)C2CCC(F)(F)CC2)c2ccccc2)n1 | – | – | 26 | 11 | – | IC50 [1]: 4230 nM
26 | COC(=O)N[C@@H](CCN1[C@@H]2CC[C@H]1C[C@@H](n1c(C)nc3c1CN(C(C)=O)CC3)C2)c1ccccc1 | 42 | 1.4 | 27 | 4 | 57 | –
27 | CCC(=O)N1CCc2nc(C)n([C@H]3C[C@H]4CC[C@@H](C3)N4CC[C@H](NC(C)=O)c3ccccc3)c2C1 | < 7 | 1.2 | 17 | < 1 | 13 | –

Source: ChEMBL document CHEMBL1649066, “An imidazopiperidine series of CCR5 antagonists for the treatment of HIV: the discovery of N-{(1S)-1-(3-fluorophenyl)-3-[(3-endo)-3-(5-isobutyryl-2-methyl-4,5,6,7-tetrahydro-1H-imidazo[4,5-c]pyridin-1-yl)-8-azabicyclo[3.2.1]oct-8-yl]propyl}acetamide (PF-232798)” (J Med Chem, 2011)
